Assay results published in US20230063794A1, “STAPLED TRIAZOLE CO-AGONISTS OF THE GLUCAGON AND GLP-1 RECEPTORS” (Merck Sharp & Dohme LLC, priority 2019, published 2023).
Starred links: 1 amine or outer side, 2 acyl side, 3 side chain; linkers in the order of their positions; H or OH if unused. Positions of bridges follow the written chain, without caps; N, C: chain ends. Non-standard residues stand in square brackets, D forms with d. Residues, ends and D or L forms follow the SMILES beside them. Groups on a side chain read outwards from the residue. Triazole bridges read from a SMILES are 1,4-linked. *: point of attachment. Lys(N3) = [N-]=[N+]=NCCCC[C@H](N)C(=O)O; γGlu = O=C(O)[C@H](CCC(=O)[*:2])N[*:1]; Met(O2) = CS(=O)(=O)CC[C@H](N)C(=O)O; Palmitoyl = CCCCCCCCCCCCCCCC(=O)*; dPra = C#CC[C@@H](N)C(=O)O; Nle = CCCC[C@H](N)C(=O)O; Aib = CC(C)(N)C(=O)O

Target: T1, human GCGR (Homo sapiens, UniProt P47871)
T1 construct: expressed in transfected cells; grown under Blasticidin and Hygromycin selection
Experiment: cAMP activity assay in cells expressing human GCGR
Type: cell-based
Conditions: ratio of human GCGR EC50 to human GLP1R EC50
Protocol: Activity of the peptides at the Glucagon receptor (GCGR) and GLP-1 receptor (GLP1R) was measured in a cAMP activity assay.
Peptides were dissolved in 100% DMSO and serially diluted to generate 10 point titrations. The peptide solutions were then transferred into 384-well assay plates (150 nL/well). Assay ready frozen cells expressing human GLP1R or human GCGR were suspended in growth media consisting of DMEM medium (GIBCO), 10% FBS (GIBCO), 1× NEAA(GIBCO), 1× P/S (GIBCO), 10 ug/ml Blasticidin (GIBCO) and 200 μg/mL Hygromycin (GIBCO). Cells were then diluted in assay buffer consisting of PBS (GIBCO), 7.5% BSA (Perkin Elmer), 100 μM RO 20-1724 (Sigma), with or without 20% human serum (MP Biomedical). The cell suspensions (15 μL) were then added to the assay plates containing the peptide solutions (30,000 cells/well for human GCGR; 10,000 cells/well for human GLP1R). The cells were incubated for 1 hour at room temperature in the dark. Production of cAMP was determined using HitHunter™ cAMPXS kits (DiscoverX) following manufacturer protocol. The plates were incubated for overnight at room temperature in the dark. Luminescence was measured using an EnVision Multilabel plate reader (Perkin Elmer). Native GLP-1 and Glucagon (Bachem) are used as control peptides. EC50 values were calculated using uses a 4 parameter logistic fit based on the Levenberg-Marquardt algorithm.

T1 sequence (P47871 26-477): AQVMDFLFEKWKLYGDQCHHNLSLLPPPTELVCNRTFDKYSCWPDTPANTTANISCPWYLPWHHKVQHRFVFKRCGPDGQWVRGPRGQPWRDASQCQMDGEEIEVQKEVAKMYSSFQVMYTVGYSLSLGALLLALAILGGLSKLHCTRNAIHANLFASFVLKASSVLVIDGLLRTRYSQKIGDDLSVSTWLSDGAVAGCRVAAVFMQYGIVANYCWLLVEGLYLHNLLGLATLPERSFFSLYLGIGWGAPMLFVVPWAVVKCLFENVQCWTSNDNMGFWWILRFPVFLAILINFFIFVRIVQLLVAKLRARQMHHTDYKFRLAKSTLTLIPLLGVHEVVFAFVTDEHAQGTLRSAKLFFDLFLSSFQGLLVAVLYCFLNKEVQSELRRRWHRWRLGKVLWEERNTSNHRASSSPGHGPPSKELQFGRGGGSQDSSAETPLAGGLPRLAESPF

| Compound | hGCGR/hGLP1R (hTone) |
| --- | --- |
| CCCCCCCCCCCCCCCC(=O)N[C@@H](CCC(=O)N[C@@H](CCC(=O)NCCCC[C@H](NC(=O)[C@H](CC(=O)O)NC(=O)[C@H](CO)NC(=O)[C@@H](NC(=O)[C@H](Cc1ccccc1)NC(=O)[C@@H](NC(=O)CNC(=O)[C@H](CCC(N)=O)NC(=O)[C@@H](CO)NC(=O)[C@@H](N)Cc1c[nH]cn1)[C@@H](C)O)[C@@H](C)O)C(=O)N[C@@H](CO)C(=O)N[C@@H](CCCCN)C(=O)N[C@@H](Cc1ccc(O)cc1)C(=O)N[C@@H](CC(C)C)C(=O)N[C@@H](CC(=O)O)C(=O)N[C@@H]1Cc2cn(nn2)CCCC[C@@H](C(=O)N[C@@H](CC(=O)O)C(=O)N[C@@H](Cc2ccccc2)C(=O)N[C@H](C(=O)N[C@@H](CCC(N)=O)C(=O)N[C@@H](Cc2c[nH]c3ccccc23)C(=O)N[C@@H](CC(C)C)C(=O)N[C@@H](CC(C)C)C(=O)N[C@@H](CC(=O)O)C(=O)N[C@H](C(N)=O)[C@@H](C)O)C(C)C)NC(=O)[C@H](C)NC(=O)[C@H](C)NC(=O)[C@H](CCCNC(=N)N)NC1=O)C(=O)O)C(=O)O [compound 12] (H-H[dS]QGTFTSDK([γGlu-γGlu-Palmitoyl])SKYLD[dPra]RAA[Lys(N3)]DFVQWLLDT-NH2; triazole 16-20) | 0.8 |
| CCCCCCCCCCCCCCCC(=O)N[C@@H](CCC(=O)N[C@@H](CCC(=O)NCCCC[C@H](NC(=O)[C@H](CC(=O)O)NC(=O)[C@H](CO)NC(=O)[C@@H](NC(=O)[C@H](Cc1ccccc1)NC(=O)[C@@H](NC(=O)CNC(=O)[C@H](CCC(N)=O)NC(=O)C(C)(C)NC(=O)[C@@H](N)Cc1c[nH]cn1)[C@@H](C)O)[C@@H](C)O)C(=O)N[C@@H](CO)C(=O)N[C@@H](CCCCN)C(=O)N[C@@H](Cc1ccc(O)cc1)C(=O)N[C@@H](CC(C)C)C(=O)N[C@@H](CC(=O)O)C(=O)NC(C)(C)C(=O)N[C@@H](CCCNC(=N)N)C(=O)N[C@@H](C)C(=O)N[C@@H](C)C(=O)N[C@@H]1Cc2cn(nn2)CCCC[C@@H](C(=O)N[C@@H](Cc2c[nH]c3ccccc23)C(=O)N[C@@H](CC(C)C)C(=O)N[C@@H](CCCC)C(=O)N[C@@H](CC(=O)O)C(=O)N[C@H](C(N)=O)[C@@H](C)O)NC(=O)[C@H](C(C)C)NC(=O)[C@H](Cc2ccccc2)NC(=O)[C@H](CC(=O)O)NC1=O)C(=O)O)C(=O)O [compound 17] (H-H[Aib]QGTFTSDK([γGlu-γGlu-Palmitoyl])SKYLD[Aib]RAA[dPra]DFV[Lys(N3)]WL[Nle]DT-NH2; triazole 20-24) | 2.25 |
| CCCCCCCCCCCCCCCC(=O)N[C@@H](CCC(=O)N[C@@H](CCC(=O)NCCCC[C@H](NC(=O)[C@H](CC(=O)O)NC(=O)[C@H](CO)NC(=O)[C@@H](NC(=O)[C@H](Cc1ccccc1)NC(=O)[C@@H](NC(=O)CNC(=O)[C@H](CCC(N)=O)NC(=O)C(C)(C)NC(=O)[C@@H](N)Cc1c[nH]cn1)[C@@H](C)O)[C@@H](C)O)C(=O)N[C@@H](CO)C(=O)N[C@@H](CCCCN)C(=O)N[C@@H](Cc1ccc(O)cc1)C(=O)N[C@@H](CC(C)C)C(=O)N[C@@H](CC(=O)O)C(=O)NC(C)(C)C(=O)N[C@@H]1Cc2cn(nn2)CCCC[C@@H](C(=O)N[C@@H](Cc2ccccc2)C(=O)N[C@H](C(=O)N[C@@H](CCC(N)=O)C(=O)N[C@@H](Cc2c[nH]c3ccccc23)C(=O)N[C@@H](CC(C)C)C(=O)N[C@@H](CCCC)C(=O)N[C@@H](CC(=O)O)C(=O)N[C@H](C(N)=O)[C@@H](C)O)C(C)C)NC(=O)[C@H](CCC(N)=O)NC(=O)[C@H](C)NC(=O)[C@H](C)NC1=O)C(=O)O)C(=O)O [compound 18] (H-H[Aib]QGTFTSDK([γGlu-γGlu-Palmitoyl])SKYLD[Aib][dPra]AAQ[Lys(N3)]FVQWL[Nle]DT-NH2; triazole 17-21) | 1.96 |
| CCCCCCCCCCCCCCCC(=O)N[C@@H](CCC(=O)N[C@@H](CCC(=O)NCCCC[C@H](NC(=O)[C@H](CC(=O)O)NC(=O)[C@H](CO)NC(=O)[C@@H](NC(=O)[C@H](Cc1ccccc1)NC(=O)[C@@H](NC(=O)CNC(=O)[C@H](CCC(N)=O)NC(=O)C(C)(C)NC(=O)[C@@H](N)Cc1c[nH]cn1)[C@@H](C)O)[C@@H](C)O)C(=O)N[C@@H](CO)C(=O)N[C@@H](CCCCN)C(=O)N[C@@H](Cc1ccc(O)cc1)C(=O)N[C@@H](CC(C)C)C(=O)N[C@@H](CC(=O)O)C(=O)NC(C)(C)C(=O)N[C@@H](CCCNC(=N)N)C(=O)N[C@@H](C)C(=O)N[C@@H](C)C(=O)N[C@@H]1Cc2cn(nn2)CCCC[C@@H](C(=O)N[C@@H](Cc2c[nH]c3ccccc23)C(=O)N[C@@H](CC(C)C)C(=O)N[C@@H](CCS(C)(=O)=O)C(=O)N[C@@H](CC(=O)O)C(=O)N[C@H](C(=O)N[C@@H](CCCCN)C(=O)N[C@@H](CCC(N)=O)C(=O)O)[C@@H](C)O)NC(=O)[C@H](C(C)C)NC(=O)[C@H](Cc2ccccc2)NC(=O)[C@H](CC(=O)O)NC1=O)C(=O)O)C(=O)O [compound 21] (H-H[Aib]QGTFTSDK([γGlu-γGlu-Palmitoyl])SKYLD[Aib]RAA[dPra]DFV[Lys(N3)]WL[Met(O2)]DTKQ-OH; triazole 20-24) | 4.5 |

The next lines start with the values.

| hGCGR/hGLP1R (hTone) | Compound |
| --- | --- |
| 0.4 | CCCCCCCCCCCCCCCC(=O)N[C@@H](CCC(=O)N[C@@H](CCC(=O)NCCCC[C@H](NC(=O)[C@H](CC(=O)O)NC(=O)[C@H](CO)NC(=O)[C@@H](NC(=O)[C@H](Cc1ccccc1)NC(=O)[C@@H](NC(=O)CNC(=O)[C@H](CCC(N)=O)NC(=O)[C@@H](CO)NC(=O)[C@@H](N)Cc1c[nH]cn1)[C@@H](C)O)[C@@H](C)O)C(=O)N[C@@H](CO)C(=O)N[C@@H](CCCCN)C(=O)N[C@@H](Cc1ccc(O)cc1)C(=O)N[C@@H](CC(C)C)C(=O)N[C@@H](CC(=O)O)C(=O)N[C@@H](C)C(=O)N[C@@H](CCCNC(=N)N)C(=O)N[C@@H](C)C(=O)N[C@@H](C)C(=O)N[C@@H]1Cc2cn(nn2)CCCC[C@@H](C(=O)N[C@@H](Cc2c[nH]c3ccccc23)C(=O)N[C@@H](CC(C)C)C(=O)N[C@@H](CC(C)C)C(=O)N[C@@H](CC(=O)O)C(=O)N[C@H](C(N)=O)[C@@H](C)O)NC(=O)[C@H](C(C)C)NC(=O)[C@H](Cc2ccccc2)NC(=O)[C@H](CC(=O)O)NC1=O)C(=O)O)C(=O)O [compound 13] (H-H[dS]QGTFTSDK([γGlu-γGlu-Palmitoyl])SKYLDARAA[dPra]DFV[Lys(N3)]WLLDT-NH2; triazole 20-24) |
| 0.5 | CCCCCCCCCCCCCCCC(=O)N[C@@H](CCC(=O)N[C@@H](CCC(=O)NCCCC[C@H](NC(=O)[C@H](CC(=O)O)NC(=O)[C@H](CO)NC(=O)[C@@H](NC(=O)[C@H](Cc1ccccc1)NC(=O)[C@@H](NC(=O)CNC(=O)[C@H](CCC(N)=O)NC(=O)[C@@H](CO)NC(=O)[C@@H](N)Cc1c[nH]cn1)[C@@H](C)O)[C@@H](C)O)C(=O)N[C@@H](CO)C(=O)N[C@@H](CCCCN)C(=O)N[C@@H](Cc1ccc(O)cc1)C(=O)N[C@@H](CC(C)C)C(=O)N[C@@H](CC(=O)O)C(=O)N[C@@H](C)C(=O)N[C@@H]1Cc2cn(nn2)CCCC[C@@H](C(=O)N[C@@H](Cc2ccccc2)C(=O)N[C@H](C(=O)N[C@@H](CCC(N)=O)C(=O)N[C@@H](Cc2c[nH]c3ccccc23)C(=O)N[C@@H](CC(C)C)C(=O)N[C@@H](CC(C)C)C(=O)N[C@@H](CC(=O)O)C(=O)N[C@H](C(N)=O)[C@@H](C)O)C(C)C)NC(=O)[C@H](CCC(N)=O)NC(=O)[C@H](C)NC(=O)[C@H](C)NC1=O)C(=O)O)C(=O)O [compound 14] (H-H[dS]QGTFTSDK([γGlu-γGlu-Palmitoyl])SKYLDA[dPra]AAQ[Lys(N3)]FVQWLLDT-NH2; triazole 17-21) |
| 0.72 | CCCCCCCCCCCCCCCC(=O)N[C@@H](CCC(=O)N[C@@H](CCC(=O)NCCCC[C@H](NC(=O)[C@H](CC(=O)O)NC(=O)[C@H](CO)NC(=O)[C@@H](NC(=O)[C@H](Cc1ccccc1)NC(=O)[C@@H](NC(=O)CNC(=O)[C@H](CCC(N)=O)NC(=O)[C@@H](CO)NC(=O)[C@@H](N)Cc1c[nH]cn1)[C@@H](C)O)[C@@H](C)O)C(=O)N[C@@H](CO)C(=O)N[C@@H](CCCCN)C(=O)N[C@@H](Cc1ccc(O)cc1)C(=O)N[C@@H](CC(C)C)C(=O)N[C@@H](CC(=O)O)C(=O)N[C@@H](C)C(=O)N[C@@H](CCCNC(=N)N)C(=O)N[C@@H](C)C(=O)N[C@@H](C)C(=O)N[C@@H](CCC(N)=O)C(=O)N[C@@H](CC(=O)O)C(=O)N[C@@H](Cc1ccccc1)C(=O)N[C@H](C(=O)N[C@@H]1Cc2cn(nn2)CCCC[C@@H](C(=O)N[C@H](C(N)=O)[C@@H](C)O)NC(=O)[C@H](CC(C)C)NC(=O)[C@H](CC(C)C)NC(=O)[C@H](Cc2c[nH]c3ccccc23)NC1=O)C(C)C)C(=O)O)C(=O)O [compound 15] (H-H[dS]QGTFTSDK([γGlu-γGlu-Palmitoyl])SKYLDARAAQDFV[dPra]WLL[Lys(N3)]T-NH2; triazole 24-28) |
| 0.99 | CCCCCCCCCCCCCCCC(=O)N[C@@H](CCC(=O)N[C@@H](CCC(=O)NCCCC[C@H](NC(=O)[C@H](CC(=O)O)NC(=O)[C@H](CO)NC(=O)[C@@H](NC(=O)[C@H](Cc1ccccc1)NC(=O)[C@@H](NC(=O)CNC(=O)[C@H](CCC(N)=O)NC(=O)C(C)(C)NC(=O)[C@@H](N)Cc1c[nH]cn1)[C@@H](C)O)[C@@H](C)O)C(=O)N[C@@H](CO)C(=O)N[C@@H](CCCCN)C(=O)N[C@@H](Cc1ccc(O)cc1)C(=O)N[C@@H](CC(C)C)C(=O)N[C@@H](CC(=O)O)C(=O)NC(C)(C)C(=O)N[C@@H](CCCNC(=N)N)C(=O)N[C@@H](C)C(=O)N[C@@H](C)C(=O)N[C@@H](CCC(N)=O)C(=O)N[C@@H](CC(=O)O)C(=O)N[C@@H](Cc1ccccc1)C(=O)N[C@H](C(=O)N[C@@H]1Cc2cn(nn2)CCCC[C@@H](C(=O)N[C@H](C(N)=O)[C@@H](C)O)NC(=O)[C@H](CCCC)NC(=O)[C@H](CC(C)C)NC(=O)[C@H](Cc2c[nH]c3ccccc23)NC1=O)C(C)C)C(=O)O)C(=O)O [compound 19] |
